No end group written: not given here.
What was measured:
[1] = molecular target: T1, HLA-A2.1 molecule (Homo sapiens, UniProt P04439, D140Y/D185E/D98H/E176V/E277Q/G131W/G231S/I119V/I121R/I166T/I218V/L300P/L318F/N151K/N90K/P208A/P217A/Q86G/Q94H/R138H/R169H/T345S); assay: Peptide binding: upregulation of HLA-A2.1 expression on (174.CEM) T2 cells, FACScan; assay type: cell-based; settings: for fluorescence ratio (i.e. binding ability): 200 μg/ml peptide, 16 hours at 37° C., (174.CEM) T2 cells, antibody BB7.2, mean fluorescence with peptide divided by without, positive when ratio of 1.2 is reached
T1 construct: endogenous in cells; host or cells: 174.CEM T2 (antigen-processing-defective human T x B hybrid cell line, provided by P. Cresswell)

[2] = tested on: HLA-A2.1 positive PBL; assay: Induction of primary in vitro CTL response with peptide loaded 174CEM.T2 cells, cloning of CTL; assay type: cell-based, human; settings: peptide loaded antigen processing defective cell line 174.CEM T2, peptide 80 μg/ml, PBL of healthy HLA-A2.1 positive donor
Description: Responder T cells are included in mononuclear white blood cells (PBL) of an HLA-A2.1 positive healthy donor. The PBL were separated from a buffycoat by Ficoll procedure (LYMPHOPREP of Nycomed-pharma, Oslo, Norway, cat. no. 105033) and washed two times in RPMI 1640 (Gibco Paislan, Scotland, cat. no. 041-02409) supplemented with 30% pooled human serum (tested for its capacity to support mixed lymphocyte cultures), 2 mM glutamine (ICN Biochemicals, Inc., Costa Mesa, Calif., USA, cat. no. 15-801-55), penicillin (100 IU/ml, Brocades Pharma, Leiderdorp, The Netherlands), kanamycin ([…], Sigma, St. Louis, Mo., USA).
174CEM.T2 (T2) cells in a concentration of 2×10^6 per ml were incubated for 13 hours at 37° C. in a T25 flask (Falcon, Becton & Dickinson, Plymouth, England, cat. no. 3013) in serum-free ISCOVE's medium (Biochrom KG, Seromed, Berlin, Gemany, cat. no. F0465) with glutamine (2 mM, ICN Biochemicals Inc., Costa Mesa, Calif., USA, cat. no. 15-801-55) and antibiotics as mentioned under 2 and individual p53 peptides at a final concentration of 80 μg/ml. Subsequently the T2 cells were spun down and treated at a density of 20×10^6 cells/ml with Mitomycin C (final concentration 50 μg/ml) in serum-free RPMI 1640 (manufacturer see 2) medium during one hour at 37° C. Thereafter the T2 cells were washed three times in RPMI 1640. […]

| Compound | fluorescence ratio (i.e. binding ability) [1] | primary in vitro human CTL response against the peptide [2] | binding to HLA-A2.1 molecule (in words) ([1]; 174.CEM T2 cells, mean HLA-A2.1 fluorescence) |
| --- | --- | --- | --- |
| CSCC[C@H](NC(=O)[C@H](CCCCN)NC(=O)[C@H](CC(N)=O)NC(=O)[C@H](CC(C)C)NC(=O)[C@H](C)N)C(=O)N[C@@H](Cc1ccccc1)C(=O)N[C@@H](CS)C(=O)N[C@@H](CCC(N)=O)C(=O)N[C@@H](CC(C)C)C(=O)N[C@@H](C)C(=O)O [compound 11, ALNKMFCOLA] | 1.4 | – | – |
| ALNKMFYQL [compound 27] | 1.2 | – | – |
| KLFCQLAXT (KLFCQLAKT) [compound 29, residues 132-140 of human mp53 (mutant p53)] | 1.3 | – | – |
| LLPENNVLS [compound 3, residues 25-33 of human p53] | 1.7 | possible so far to generate a primary in vitro human CTL response | strong ability to bind to HLA-A2.1 |
